These results are taken from patent publication US10561704B2, “Compositions and methods for treating neuropsychiatric disorders using an endothelin-B receptor agonist” (MIDWESTERN UNIVERSITY, priority 2013, dated 2020).

The test system of experiment [1] is middle cerebral artery occluded rats. The experiment is described as follows: Angiogenesis and neurogenesis markers (ETB, NeuN, BrdU, VEGF, NGF) following cerebral ischemia. It counts as in vivo. As for the experimental part:
FIG. 16: Effect of ETB receptor agonist, IRL-1620 (three doses of 5 μg/kg, i.v., at 2, 4 and 6 h post ischemia), and antagonist, BQ788 (1 mg/kg, i.v.), on neuronal nuclei (NeuN) post middle cerebral artery occlusion. (A) Representative image of the cortex of an IRL-1620-treated animal 1 week following MCAO, stained for the ETB receptor (green) and NeuN (red). Scale bar=100 μm. (B) Representative image of the striatum of an IRL-1620-treated animal 1 week following MCAO, stained for the ETB receptor (green) and NeuN (red). Scale bar=10 μm. (C) Number of neuronal nuclei per 100 μm^2 in the cortex, striatum, and subventricular zone of middle cerebral artery occluded rats at 24 h after infarct. *P<0.05 vs. sham. ^#P<0.01 vs. MCAO+vehicle. ^@P<0.0001 vs. MCAO+IRL-1620. (D) Number of neuronal nuclei per 100 μm^2 in the cortex, striatum, and subventricular zone of middle cerebral artery occluded rats at 1 week after infarct. Values are expressed as mean±SEM (n=5/group). *P<0.0001 vs. sham. ^#P<0.0001 vs. MCAO+vehicle. ^@P<0.0001 vs. MCAO+IRL-1620.
FIG. 17: Effect of ETB receptor agonist, IRL-1620 (3 doses of 5 μg/kg, i.v., at 2, 4 and 6 hours post ischemia), and antagonist, BQ788 (1 mg/kg, i.v.), on proliferating cells post middle cerebral artery occlusion. Representative image of the cortex of an IRL-1620-treated animal 1 week following MCAO depicting a cerebral blood vessel, stained for the ETB receptor (green) and BrdU (red). Scale bar=100 μm. […] Values are expressed as mean±SEM (n=5/group). *P<0.01 vs. sham. #P<0.0001 vs. MCAO+vehicle. @P<0.0001 vs. MCAO+IRL-1620.
FIG. 19: Effect of ETB receptor agonist, IRL-1620 (3 doses of 5 μg/kg, i.v., at 2, 4 and 6 hours post ischemia), and antagonist, BQ788 (1 mg/kg, i.v.), on vascular endothelial growth factor (VEGF) post middle cerebral artery occlusion. […] Values are expressed as mean±SEM (n=5/group). *P<0.01 vs. sham. #P<0.01 vs. MCAO+vehicle. @P<0.05 vs. MCAO+IRL-1620.
FIG. 21: Effect of ETB receptor agonist, IRL-1620 (3 doses of 5 μg/kg, i.v., at 2, 4 and 6 hours post ischemia), and antagonist, BQ788 (1 mg/kg, i.v.), on nerve growth factor (NGF) post middle cerebral artery occlusion. A. Representative image of the cortex of an IRL-1620-treated animal 1 week following MCAO, stained for the ETB receptor (green) and NGF (red). Scale bar=10 μm. B. Number of NGF+cells per 100 μm^2 in the cortex, striatum, and subventricular zone of middle cerebral artery occluded rats at 1 week after infarct. Values are expressed as mean±SEM (n=5/group). #P<0.0001 vs. MCAO+vehicle. @P<0.0001 vs. MCAO+IRL-1620.
Effect of IRL-1620 on angiogenesis and neurogenesis following cerebral ischemia in rats: Angiogenesis and neurogenesis are the driving forces for the neurovascular remodeling that is essential post-stroke to restore normal brain function (Hawkins and Davis, 2005). VEGF is an endogenous protein known for its ability to promote angiogenesis and enhance vascular permeability. Under hypoxic conditions such as cerebral ischemia, VEGF expression is induced in neurons, astrocytes and endothelial cells via hypoxia-inducible factor-1 (HIF-1) (Breier and Risau, 1996). Once expressed, VEGF initiates both direct and indirect neuroprotective actions, inhibiting apoptosis, stimulating neurogenesis and angiogenesis, increasing glucose uptake and activating antioxidants (Gora-Kupilas and Josko, 2005). It has been shown that intracerebroventricular (i.c.v.) administration of an ETB receptor agonist in normal rats stimulates production of VEGF and activates VEGF receptors in the brain, while, in cultured astrocytes, this agonist increases VEGF-A mRNA as well as BrdU incorporation (Koyama et al., 2012; Koyama et al., 2011). ETB receptor agonist, IRL-1620, has been shown in our previous studies, to provide significant neuroprotection at both 24 hours and 1 week following permanent cerebral ischemia. […]

The test system is the same in experiment [2]. The note with it: acute study, 24 hours (Leonard et al., 2011); cited from earlier work.

*1 amine or outer side, *2 acyl side, *3 side chain or, on linkers, in order; H or OH if unused. Where no end group is shown, it is not given here. Suc = O=C(CCC(=O)[*:2])[*:1]

Turning to `CCCC[C@@H](NC(=O)[C@@H](Cc1cn(C(=O)OC)c2ccccc12)NC(=O)[C@H](CC(C)(C)C)NC(=O)N1[C@H](C)CCC[C@@H]1C)C(=O)O` [BQ788, reference compound], the “Effects of IRL-1620 treatment (neurovascular remodeling)” value in experiment [1] (pretreatment with BQ-788) is reported as “blocked”.

For “Suc-Asp-Glu-Glu-Ala-Val-Tyr-Phe-Ala-His-Leu-Asp-Ile-Ile-Trp (Suc-DEEAVYFAHLDIIW) [IRL-1620]”, the “Number of proliferating cells in the infarcted brain” value in experiment [1] (1 week after MCAO) is “increased number”. For the same compound, the “VEGF-positive vessels/30 μm brain slice” value in experiment [1] (1 week following MCAO) stood at 11.33±2.13. Besides, the “ETB receptor expression in cortex, striatum and SVZ” value in experiment [1] (24 hours post occlusion) was “increased”. Moreover, the “Neuronal numbers in cortex, striatum and SVZ” value in experiment [1] (24 hours post occlusion) was “preserved”. The “Number of blood vessels labeled with VEGF” value in experiment [1] (24 hours post occlusion, vs vehicle treatment) is reported as “enhanced”. Besides, the “NGF-positive cells per 100 μm^2” value in experiment [1] (SVZ, 1 week after MCAO) was 3.05±0.38 per 100 μm^2; in experiment [1] (cortex, 1 week after MCAO) it was 2.29±0.31 per 100 μm^2; in experiment [1] (striatum, 1 week after MCAO) it was 2.08±0.26 per 100 μm^2. Further, the “Reduction of infarct volume” value in experiment [2] was 83.66%.
